As a reminder, the EC50 is the concentration that produces a half-maximal response.

Here are results for twelve molecules from patent publication US11912686B2 (Gilead Sciences, Inc., priority 2020, dated 2024).

The experiment deals with human LPAR1 (Homo sapiens (Human), UniProt Q92633). The experiment is described as follows: LPAR1 intracellular calcium mobilization assay (antagonist mode, FLIPR). The note with it: CHO-K1 EDG2 cells expressing human LPAR1, LPA 18:2 at EC80 (100 nM), test compound 0.5 nM to 10 μM. The class given is cell-based. On the technique in general: Calcium flux is commonly read through the fluorescence of an indicator in the cells.
human LPAR1, sequence (Q92633 whole entry): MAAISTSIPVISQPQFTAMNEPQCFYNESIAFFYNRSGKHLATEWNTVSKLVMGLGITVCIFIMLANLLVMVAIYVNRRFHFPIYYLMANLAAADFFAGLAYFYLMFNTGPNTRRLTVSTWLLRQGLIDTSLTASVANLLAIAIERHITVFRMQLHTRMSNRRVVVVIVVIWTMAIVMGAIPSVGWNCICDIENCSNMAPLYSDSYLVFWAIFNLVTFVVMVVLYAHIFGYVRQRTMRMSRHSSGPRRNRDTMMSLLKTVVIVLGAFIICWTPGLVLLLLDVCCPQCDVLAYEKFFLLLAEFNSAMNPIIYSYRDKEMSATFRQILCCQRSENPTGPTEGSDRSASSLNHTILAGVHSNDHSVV
Consider `CC(=O)Nc1ccc(-c2nnn(C)c2NC(=O)O[C@H](C)c2cc(F)cnc2Cl)nc1` [Compound 15, (R)-1-(2-chloro-5-fluoropyridin-3-yl)ethyl (4-(5-acetamidopyridin-2-yl)-1-methyl-1H-1,2,3-triazol-5-yl)carbamate], for which the 50% effective concentration (EC50) was 452 nM.

Consider `C[C@@H](OC(=O)Nc1c(-c2ccc(NC=O)cn2)nnn1C)c1cccnc1Cl` [Compound 16, (R)-1-(2-chloropyridin-3-yl)ethyl (4-(5-formamidopyridin-2-yl)-1-methyl-1H-1,2,3-triazol-5-yl)carbamate], for which the half-maximal effective concentration (EC50) was 2180 nM. With `COC(=O)Nc1ccc(-c2nnn(C)c2NC(=O)O[C@H](C)c2cccnc2Cl)nc1` [Compound 17, (R)-1-(2-chloropyridin-3-yl)ethyl (4-(5-((methoxycarbonyl)amino)pyridin-2-yl)-1-methyl-1H-1,2,3-triazol-5-yl)carbamate], the EC50 turned out to be 29.3 nM.

`COC(=O)Nc1ccc(-c2nnn(C)c2NC(=O)O[C@H](CF)c2ccccc2)cc1` [Compound 18, (S)-2-fluoro-1-phenylethyl (4-(4-((methoxycarbonyl)amino)phenyl)-1-methyl-1H-1,2,3-triazol-5-yl)carbamate]: the EC50 turned out to be 1130 nM. As to `COC(=O)Nc1ccc(-c2nnn(C)c2NC(=O)O[C@H](CF)c2cccc(F)c2)nc1` [Compound 19, (S)-2-fluoro-1-(3-fluorophenyl)ethyl (4-(5-((methoxycarbonyl)amino)pyridin-2-yl)-1-methyl-1H-1,2,3-triazol-5-yl)carbamate], the half-maximal effective concentration (EC50) is 276 nM. With `CCOC(=O)Nc1ccc(-c2nnn(C)c2NC(=O)O[C@H](C)c2cccnc2Cl)nc1` [Compound 21, (R)-1-(2-chloropyridin-3-yl)ethyl (4-(5-((ethoxycarbonyl)amino)pyridin-2-yl)-1-methyl-1H-1,2,3-triazol-5-yl)carbamate], the EC50 turned out to be 39.6 nM. To `CC(C)COC(=O)Nc1ccc(-c2nnn(C)c2NC(=O)O[C@H](C)c2cccnc2Cl)nc1` [Compound 22, (R)-1-(2-chloropyridin-3-yl)ethyl (4-(5-((isobutoxycarbonyl)amino)pyridin-2-yl)-1-methyl-1H-1,2,3-triazol-5-yl)carbamate] belongs 43.4 nM; to `CC(=O)Nc1ccc(-c2nnn(C)c2NC(=O)O[C@H](C)c2cccnc2Cl)nc1` [Compound 23, (R)-1-(2-chloropyridin-3-yl)ethyl (4-(5-acetamidopyridin-2-yl)-1-methyl-1H-1,2,3-triazol-5-yl)carbamate], 1100 nM. To `CC(=O)Nc1ccc(-c2nnn(C)c2NC(=O)O[C@H](CF)c2cccc(F)c2)nc1` [Compound 25, (S)-2-fluoro-1-(3-fluorophenyl)ethyl (4-(5-acetamidopyridin-2-yl)-1-methyl-1H-1,2,3-triazol-5-yl)carbamate] belongs 2270 nM; to `Cc1cnc(F)cc1C(C)OC(=O)Nc1c(-c2ccc(NC(=O)C3CC(F)(F)C3)cn2)nnn1C` (stereo not drawn) [Compound 26, 1-(2-fluoro-5-methylpyridin-4-yl)ethyl (4-(5-(3,3-difluorocyclobutane-1-carboxamido)pyridin-2-yl)-1-methyl-1H-1,2,3-triazol-5-yl)carbamate], 587 nM. On to `Cc1cnc(F)cc1C(C)OC(=O)Nc1c(-c2ccc(NC(=O)C3(C#N)CC3)cn2)nnn1C` (stereo not drawn) [Compound 27, 1-(2-fluoro-5-methylpyridin-4-yl)ethyl (4-(5-(1-cyanocyclopropane-1-carboxamido)pyridin-2-yl)-1-methyl-1H-1,2,3-triazol-5-yl)carbamate], for which the EC50 is 1280 nM. With `C[C@@H](OC(=O)Nc1c(-c2ccc(NC(=O)C3CC(F)(F)C3)cn2)nnn1C)c1cc(F)cnc1F` [Compound 28, (R)-1-(2,5-difluoropyridin-3-yl)ethyl (4-(5-(3,3-difluorocyclobutane-1-carboxamido)pyridin-2-yl)-1-methyl-1H-1,2,3-triazol-5-yl)carbamate], the 50% effective concentration (EC50) worked out at 29.1 nM.
